Reference: ChEMBL document CHEMBL1132242, “Stereoselective characterization of the 1,4-dihydropyridine binding site at L-type calcium channels in the resting state and the opened/inactivated state” (J Med Chem, 1999)
Several values for one entry are separate records, joined by “and”; a condition that tells them apart may be missing. Identical values can stand only once.

Legend:
[1] = target: T1, Voltage-gated L-type calcium channel (Homo sapiens, UniProt Q13936+Q13698+Q01668+O60840); test: Evaluated for the free energies of binding (delta G) (in the resting state (rs) of voltage-gated L-type [Ca2+] channel (VGCCs)); type: protein assay
[2] = target: T1, Voltage-gated L-type calcium channel; test: Free energy of binding (delta G) for inactivated state (is) of voltage-gated L-type [Ca2+] channel(VGCCs); type: protein assay
[3] = target: T1, Voltage-gated L-type calcium channel; test: Difference in free energies of binding (delta G) in the Resting state (rs) and inactivated state (is) of voltage-gated L-type [Ca2+] channel(VGCCs); type: protein assay
[4] = target: T1, Voltage-gated L-type calcium channel; test: Free energies of binding(delta G)in inactivated state (is) of voltage-gated L-type [Ca2+] channel(VGCCs); type: protein assay
[5] = target: T1, Voltage-gated L-type calcium channel; test: Free energies of binding (delta G) in the Resting state (rs) of voltage-gated L-type [Ca2+] channel(VGCCs); type: protein assay

Row | Structure (SMILES) | Delta Gsolv | Binding energy [1] | Binding energy [2] [kcal/M] | Binding energy [3] [kcal/M] | Binding energy [4] [kcal/M] | Binding energy [5] [kcal/M]
1 | COC(=O)C1=C(C)N=C(C)/C(=C(\O)OC)C1c1ccccc1Cl (stereo not drawn) | -9.26 kcal/mol | -13.34 kcal/M | – | – | – | –
2 | COC(=O)C1=C(C)N=C(C)/C(=C(/O)OC)C1c1cccc(Cl)c1 (stereo not drawn) | -8.94 kcal/mol | -12.685 kcal/M | – | – | – | –
3 | CC1=CC(c2ccccc2OC(F)F)C([N+](=O)[O-])=C(C)N1 (stereo in doubt; form 2) | -10.096 kcal/mol | -7.86 kcal/M | -8.28 | – | – | –
4 | COC(=O)C1=C(C)N=C(C)/C(=C(\O)OC)C1c1c(F)c(F)c(F)c(F)c1F (stereo not drawn) | -9.442 kcal/mol | -14.145 kcal/M | – | – | – | –
5 | COC(=O)C1=C(C)N=C(C)/C(=C(\O)OC)C1c1cccc(OC)c1 (stereo in doubt; form 1) | -9.847 kcal/mol | -9.916 kcal/M | – | – | – | –
6 | COC(=O)C1=C(C)N=C(C)/C(=C(\O)OC)C1c1ccccc1I (stereo not drawn) | -9.18 kcal/mol | -14.731 kcal/M | – | – | – | –
7 | COC(=O)C1=C(C)N=C(C)/C(=C(\O)OC)C1c1cccc(C#N)c1 (stereo in doubt; form 1) | -10.743 kcal/mol | -9.71 kcal/M | -12.108 | – | – | –
8 | CC1=CC(c2ccccc2C(F)(F)F)C([N+](=O)[O-])=C(C)N1 (stereo in doubt; form 2) | -10.33 kcal/mol | -7.36 kcal/mol | -7.74 | -0.38 | – | –
9 | CC1=CC(c2ccccc2OC(F)F)C([N+](=O)[O-])=C(C)N1 (stereo in doubt; form 1) | -11.269 kcal/mol | -7.422 kcal/M | -7.783 | – | – | –
10 | COC(=O)C1=C(C)N=C(C)/C(=C(\O)OC)C1c1ccc(Cl)cc1 (stereo in doubt; form 1) | -9.2 kcal/mol | -8.209 kcal/M | -8.964 | – | – | –
11 | CC1=C([N+](=O)[O-])C(c2ccccc2C(F)(F)F)C([N+](=O)[O-])=C(C)N1 | -17.275 kcal/mol | -8.256 kcal/M | -9.11 | -0.85 | – | –
12 | COC(=O)C1=C(C)N=C(C)/C(=C(\O)OC)C1c1ccccc1C#N (stereo not drawn) | -9.74 kcal/mol | -12.522 kcal/M | – | – | – | –
13 | COC(=O)C1=C(C)N=C(C)/C(=C(\O)OC)C1c1ccccc1OC (stereo not drawn) | -10.468 kcal/mol | -10.735 kcal/M | – | – | – | –
14 | COC(=O)C1=C(C)NC(C)=C([N+](=O)[O-])C1c1ccccc1C(F)(F)F (stereo in doubt; form 1) | -13.929 kcal/mol | -8.8 kcal/M | -10.296 | -1.5 | – | –
15 | COC(=O)C1=C(C)NC(C)=C(C(=O)OC)C1c1ccccc1 | -8.706 kcal/mol and -9.458 kcal/mol | -8.58 kcal/M and -10.707 kcal/M | -10.387 | – | – | –
16 | COC(=O)C1=C(C)N=C(C)/C(=C(\O)OC)C1c1ccccc1F (stereo not drawn) | -9.804 kcal/mol | -11.512 kcal/M | – | – | – | –

Row | Structure (SMILES) | Delta Gsolv | Binding energy [1] | Binding energy [2] [kcal/M] | Binding energy [3] [kcal/M] | Binding energy [4] [kcal/M] | Binding energy [5] [kcal/M]
17 | COC(=O)C1=C(C)N=C(C)/C(=C(\O)OC)C1c1cccc(C)c1 (stereo not drawn) | -8.407 kcal/mol | -9.93 kcal/M | – | – | – | –
18 | COC(=O)C1=C(C)N=C(C)/C(=C(\O)OC)C1c1ccc(F)cc1 (stereo not drawn) | -9.427 kcal/mol | -10.175 kcal/M | – | – | – | –
19 | COC(=O)C1=C(C)N=C(C)/C(=C(\O)OC)C1c1ccc(Cl)cc1 (stereo in doubt; form 2) | -8.79 kcal/mol | -7.666 kcal/M | – | – | – | –
20 | CC1=CC(c2ccccc2C(F)(F)F)C([N+](=O)[O-])=C(C)N1 (stereo in doubt; form 1) | -10.313 kcal/mol | -6.967 kcal/M | – | -0.66 | -7.634 | –
21 | COC(=O)C1=C(C)N=C(C)/C(=C(\O)OC)C1c1ccccc1Br (stereo not drawn) | -9.256 kcal/mol | -14.308 kcal/M | – | – | – | –
22 | CO/C(O)=C1\C(C)=NC(C)=C([N+](=O)[O-])C1c1ccccc1OC(F)F (stereo not drawn) | -14.543 kcal/mol | -9.26 kcal/M | -10.564 | – | – | –
23 | COC(=O)C1=C(C)N=C(C)/C(=C(\O)OC)C1c1cccc(F)c1 (stereo not drawn) | -9.56 kcal/mol | -11.58 kcal/M | – | – | – | –
24 | COC(=O)C1=C(C)N=C(C)/C(=C(\O)OC)C1c1cccc(OC)c1 (stereo in doubt; form 2) | -9.756 kcal/mol | -7.819 kcal/M | -8.461 | – | – | –
25 | COC(=O)C1=C(C)N=C(C)/C(=C(\O)OC)C1c1ccc(C)cc1 (stereo not drawn) | -8.19 kcal/mol | -9.79 kcal/M | – | – | – | –
26 | COC(=O)C1=C(C)NC(C)=C([N+](=O)[O-])C1c1ccccc1C(F)(F)F (stereo in doubt; form 2) | -14.15 kcal/mol | -9.7 kcal/M | -10.641 | -0.94 | – | –
27 | COC(=O)C1=C(C)N=C(C)/C(=C(\O)OC)C1c1cccc(C#N)c1 (stereo in doubt; form 2) | -10.65 kcal/mol | -11.84 kcal/M | – | – | – | –
28 | CC1=C([N+](=O)[O-])C(c2ccccc2OC(F)F)C([N+](=O)[O-])=C(C)N1 | -16.994 kcal/mol | -7.82 kcal/M | -8.66 | – | – | –
29 | COC(=O)C1=C(C)NC(C)=C(C(=O)OC)C1c1ccccc1[N+](=O)[O-] [NIFEDIPINE] | -14.117 kcal/mol and -14.198 kcal/mol | -12.385 kcal/M | -13.184 | – | – | -10.502
30 | COC(=O)C1=C(C)NC(C)=C([N+](=O)[O-])C1c1ccccc1OC(F)F (stereo not drawn) | -14.696 kcal/mol | -9.571 kcal/M | -10.474 | – | – | –
31 | COC(=O)C1=C(C)N=C(C)/C(=C(\O)OC)C1c1ccccc1C (stereo not drawn) | -7.993 kcal/mol | -11.88 kcal/M | – | – | – | –
